Assay results as given in US12338263B2, “Antibacterial aminoglycoside derivatives” (priority 2019, dated 2025).
≈ marks a conversion by molar mass, not a printed value. Read-outs that look alike come from different tables or passages of the source.

Assays:
Experiment in all cases: Antibacterial effect (MIC), micro-liquid dilution method (CLSI)
Assay type in all cases: cell-based
E. coli ATCC BAA-2523 = conditions: Escherichia coli, ATCCBAA2523
Method: (§1) Three strains Enterobacteriaceae E. coli ATCC 25922, E. coli ATCC BAA-2523, K. pneumonia ATCC BAA-1705 were used to determine the Minimum Inhibitory Concentration (MIC) of each compound by the micro-liquid dilution method according to the requirements of the Institute of Clinical and Laboratory Standard (CLSI). 2-fold series diluted compounds (with a final concentration range […]) were added to a round bottom 96-well plate (Catalog #3788, Corning). A single clone of fresh bacteria on the plate of Mueller Hinton II Agar (MHA, Cat. No. 211438, BD BBL™) after overnight culture was picked and suspended in sterile saline to adjust the concentration to 1×10^8 CFU/mL, and then diluted to 5×10^5 CFU/mL by Cation-Adjusted Mueller Hinton II Broth (MHB, Catalog #212332, BD BBL™), 100 μL of which was added to the round bottom 96-well plate containing the drug. The plate was inverted and incubated at 37° C. for 20-24 hours, and the MIC value was read. The lowest drug concentration that inhibits bacterial growth was defined as MIC.

E. coli ATCC 25922 = conditions: Escherichia coli, ATCC25922
Method: as §1

[1] = test system: K. pneumoniae ATCC BAA-1705; conditions: Klebsiella pneumoniae, ATCCBAA1705
Method: as §1

Row | MIC (E. coli ATCC BAA-2523; E. coli ATCC BAA-2523, 37° C., 20-24 hours, read-out: MIC) [µM] | MIC (E. coli ATCC 25922; E. coli ATCC 25922, 37° C., 20-24 hours, read-out: MIC) [µM] | MIC ([1]; K. pneumoniae ATCC BAA-1705, 37° C., 20-24 hours, read-out: MIC) [µM] | SMILES | MIC (E. coli ATCC BAA-2523) [µM] | MIC (E. coli ATCC 25922) [µM] | MIC [1] [µM]
1 | 4 (≈ 3.03 µg/mL) | 2 (≈ 1.52 µg/mL) | 4 (≈ 3.03 µg/mL) | CN[C@@H]1[C@@H](O)[C@@H](O[C@@H]2[C@@H](O)[C@H](O[C@H]3OC(CNCCOCCONC(=N)NCC(F)F)=CC[C@H]3N)[C@@H](N)C[C@H]2NC(=O)[C@@H](O)CCN)OC[C@]1(C)O [Compound 2] |  |  | 
2 |  |  |  | CN[C@@H]1[C@@H](O)[C@@H](O[C@@H]2[C@@H](O)[C@H](O[C@H]3OC(CNCCCONC(=N)N)=CC[C@H]3N)[C@@H](N)C[C@H]2NC(=O)[C@@H](O)CCN)OC[C@]1(C)O [Compound 3] | 1 (≈ 0.664 µg/mL) | 0.5 (≈ 0.332 µg/mL) | 0.25 (≈ 0.166 µg/mL)
